Several values for one entry are separate records, joined by “and”; a condition that tells them apart may be missing. Equal values may be shown once. Read-outs that look alike come from different tables or passages of the source.
Legend:
E. coli DH5α [1] = test: Surface interaction with bacterial cells (imaging); format: cell-based, Escherichia coli; details: 10 mg/L (as total Ag), 72 h
Procedure: (§1) FIG. 8 depicts the antimicrobial effects of positively charged NH2—AgNPs compared with carboxylate/citrate AgNPs (cit-AgNPs) and Ag^+ ions on E. coli DH5α and K12 growth (panel A), and the effects of the surface interaction of 10 mg/L (equivalent to 10 ppm) NH2—AgNPs compared with the effects of the surface interaction of Cit-AgNPs and Ag^+ ions on E. coli DH5α (panel B).

E. coli DH5α [2] = test: Antimicrobial growth curves; format: cell-based, Escherichia coli; details: 10 ppm
Procedure: as §1

E. coli K12 = test: Antimicrobial growth curves; format: cell-based, Escherichia coli; details: 10 ppm
Procedure: as §1

[3] = test system: Pseudokirchneriella subcapitata; test: Green alga cell growth (cell count); format: cell-based
Procedure: (§2) Control group (panel A) received only growth medium (100 mL). Each treatment received 1.2×10^6 cells/mL on day-0 and were allowed to grow until day-28 when the experiments were halted. Cell count was recorded on day-7 (acute), day-14 and day-28 (chronic).
(§3) 1.a. […] Experiments were repeated twice for NoPest-Ag5, Ag+ ions and control groups, and data were combined. Algae were cultured in an Erlenmeyer flask with 100 mL growth media using a16:8 h day:night cycle at 25±2° C. under the LED lighting of 4830 lux. Microscopic analysis coupled with hemocytometer was used to measure cell growth, and total chlorophyll (chlorophyll [a+b]) was used to measure primary productivity, in algae.

Soybean seeds = test: Soybean seedling biomass; format: in vivo, Glycine max; details: 0.2-50 mg/L, day-7
Text: FIG. 13 depicts the effect of exposure to NH2—AgNPs on soybean seedling biomass.

Daphnia magna [4] = test: Daphnia magna chronic 21-day reproduction test; format: in vivo
Text: FIG. 23 depicts a Daphnia magna 21-day (chronic) reproduction test.
This mirrors OECD 202, Daphnia sp. Reproduction Test.

Corn (Zea mays) seeds = test: Corn seed germination; details: 0.25-50 mg/L, 7 days
[5] = test system: Pseudokirchneriella subcapitata; test: Green alga total chlorophyll (a+b) analysis; format: cell-based
Procedure: as §2, with “mL). Chlorophylls (a and b) were extracted using a 95% ethanol method and measured using an UV-Vis spectrophotometer (Hach DR6000).” for “mL).”, “Chlorophylls were” for “Cell count was”
as §3
1.b. Chlorophyll analysis: Chlorophylls (a and b) were extracted using 95% ethanol method, measured using UV-Vis spectrophotometer (Hach DR6000), and reported as total chlorophyll (a+b).

soybean seed = test: Soybean seed germination; details: 0.25-50 mg/L, 7 days
Daphnia magna [6] = test: Daphnia magna acute 48-hour survival test
Procedure: FIG. 22 depicts a Daphnia magna 48-hour (acute) toxicity test.
This mirrors OECD 202, Daphnia sp. Reproduction Test. […] Daphnia were cultured in a beaker (500 mL) using 16:8 h day:night cycle at 20±2° C. under the diffused cool LED lighting.

[7] = test system: honeybee, Apis mellifera L.; test: Honeybee 48-hour contact (dermal) exposure test (OECD 214); format: in vivo; details: for 48-hour Mortality: per replicate of 10 bees, listed as Positive Control
Procedure: (§4) Pollinators, especially honeybees, are susceptible to certain insecticides. Understanding the susceptibility of honeybees will determine the test substance's safe use in the environment as well as when the product should be used in relation to honeybee activity.
Honeybee 48-hour Contact (Dermal) Exposure Test Contact exposure followed OECD Test 214 method. Young adult worker honeybees were exposed to six test doses ranging from 0.1 to 40 ng a.i./bee administered topically to the dorsal side of the thorax of each bee in a 2 μL droplet of water containing 1% Tween 80 surfactant. A negative control group and a surfactant control group were maintained concurrently. Additional groups of bees from the same source were nominally dosed with imidacloprid, at 0.032, 0.08 and 0.2 μg a.i./bee as a positive control substance. The positive control test was conducted concurrently with the definitive test and the bees were administered topically to the dorsal side of the thorax of each bee in a 2.0 μL droplet with water containing […] surfactant. Three replicate test chambers were maintained in each control and treatment group, with 10 bees in each test chamber. Observations of mortality and other signs of toxicity were made for approximately 48 hours after dosing. Cumulative mortality observed in the test groups was used to determine the LD50.

[8] = test system: honeybee, Apis mellifera L.; test: as above; format: in vivo; details: 0.008 μg a.i./bee [4 mg a.i./L], per replicate of 10 bees, listed as Positive Control
[9] = test system: honeybee, Apis mellifera L.; test: Honeybee 48-hour oral exposure test (OECD 213); format: in vivo; details: for 48-hour Mortality: per replicate of 10 bees; for Consumption after 6 hours: Consumed: per replicate, 200 μL provided
Procedure: as §4
Honeybee 48-hour Oral Exposure Test: Oral exposure followed OECD Test 213 method. […] The test included nominal test item doses ranging from 1 to 400 ng a.i./bee (ppt a.i./bee) and a concurrent negative control group. Additional groups of bees from the same source were dosed with imidacloprid, at 0.0013, 0.0032 and 0.008 μg a.i./bee (ppb a.i./bee) as a positive control substance, also conducted concurrently. Three replicate test chambers were maintained in each control and treatment group, with 10 bees in each test chamber. Observations of mortality and other signs of toxicity were made for approximately 48 hours after dosing. Cumulative mortality observed in the test groups was used to determine the LD50 (lethal dose that kills 50% of the test populations).

[10] = 0.032 μg a.i./bee [16 mg a.i./L]
[11] = 0.2 μg a.i./bee [100 mg a.i./L]
[12] = 0.0013 μg a.i./bee [0.0065 mg a.i./L]
[13] = 0.0032 μg a.i./bee [0.016 mg a.i./L]
[14] = 0.0032 μg a.i./bee [0.016 mg a.i./L], listed as Positive Control
[15] = 0.008 μg a.i./bee [0.04 mg a.i./L]
[16] = 0.008 μg a.i./bee [0.04 mg a.i./L], listed as Positive Control

Which results are given for `[Ag+]` [Ag^+ ions]?
Cell integrity after surface interaction (E. coli DH5α [1]): intact cells were observed, but with a shape change to a hexagonal honeycomb like phenotype lacking adherent fimbriae; Nature of effect based on growth curves (E. coli DH5α [2]): bacteriostatic effects; Nature of effect based on growth curves (E. coli K12): bacteriostatic effects; Comparative toxicity of all four test compounds (cell count) [3]: most toxic; Algal growth compared to control (cell count) ([3]; at or above 1 mg/L): inhibited algal growth; Seedling biomass compared to control (water only) (Soybean seeds): promoted seedling biomass; Mean decrease in reproduction (Daphnia magna [4]; 0.01 mg/L): 6.6%; Mean increase in reproduction (Daphnia magna [4]; concentrations except 0.01 mg/L): 126.6-1120%; Toxicity in germination of corn (Corn (Zea mays) seeds): non-toxic; Toxicity by total chlorophyll ([5]; 10 mg/L): less toxic compared to NoPest-Ag5; Toxicity in germination of soybean (soybean seed): non-toxic

Which “Algal growth compared to control (cell count)” value ([3]; 0.5 mg/L) does the source give for `[Cd+2]` [Cd^2+ ions] here?
Its value is “stimulatory”.

What about the “Algal toxicity (cell count)” value ([3]; at or above 0.75 mg/L) of the same compound?
The value was “toxicity of Cd^2+ ions increased”.

And the Chlorophyll synthesis ([5]; 0.05-0.75 mg/L)?
The Chlorophyll synthesis was “chlorophyll synthesis did occur”.

And the “Chlorophyll synthesis compared to control” value ([5]; at or above 1 mg/L)?
The value was “inhibited chlorophyll synthesis”.

`[Cu+2]` [Cu^2+ ions] was tested. Which Mean survival (Daphnia magna [6]; 0.5 mg/L) did it give?
Its Mean survival is 0%.

Which results are given for `O=[N+]([O-])NC1=NCCN1Cc1ccc(Cl)nc1` [Imidacloprid]?
Mean survival (Daphnia magna [6]; all concentrations tested): 66.6-86.6%; 48-hour Mortality Mean ([7]; 0.008 μg a.i./bee [4 mg a.i./L]): 10%; 48-hour Mortality Mean [7, 10]: 33%; 48-hour Mortality [7, 10]: 40% and 10% and 50%; 48-hour Mortality Mean [7, 11]: 77%; 48-hour Mortality [7, 11]: 70% and 100% and 60%; Surviving bees that appeared lethargic ([7]; 24 lethargic out of 54 surviving bees): 46.3%; LD50 ([7]; 48-hour): 0.11 μg a.i./bee; Average mortality ([7]; 48-hr, positive control doses, n=30 bees per concentration): 10%-77%; Comparative toxicity of all four test compounds (cell count) [3]: least toxic; Algal toxicity based on cell count ([3]; all concentrations tested): generally non-toxic, except at a high concentration of 100 mg/L; Cell growth ([3]; by day-28): concentration-dependent inhibition above 1 mg/L; Reproduction compared with control (Daphnia magna [4]): not significantly different from control; 48-hour Mortality [8]: 0% and 20% and 10%; Comparative toxicity of all four test compounds (chlorophyll) [5]: least toxic; Toxicity by total chlorophyll [5]: generally non-toxic; 48-hour Mortality Mean [9, 12]: 0%; Consumption after 6 hours: Consumed, Mean [9, 12]: 198 µL; 48-hour Mortality [9, 12]: 0%; Consumption after 6 hours: Consumed ([9]; 0.0013 μg a.i./bee [0.0065 mg a.i./L], listed as Positive Control): 200 μL (2×) and 195 μL; 48-hour Mortality Mean [9, 13]: 3%; Consumption after 6 hours: Consumed, Mean [9, 13]: 163 µL; 48-hour Mortality [9, 14]: 0% (2×) and 10%; Consumption after 6 hours: Consumed [9, 14]: 140 µL and 150 µL and 200 µL; 48-hour Mortality Mean [9, 15]: 7%; Consumption after 6 hours: Consumed, Mean [9, 15]: 88 µL; 48-hour Mortality [9, 16]: 0% (2×) and 20%; Consumption after 6 hours: Consumed [9, 16]: 85 µL and 110 µL and 70 µL; Average survival ([9]; 48-hr, 0.0013-0.008 μg a.i./bee): 93%-97%; Appearance of surviving bees at test termination ([9]; 48 hours): appeared normal; Mean consumption per replicate ([9]; positive control groups): 88 to 198 µL

— US20230057699A1, “NANOTECHNOLOGY-BASED PESTICIDES AND INTERMEDIATES, COMPOSITIONS AND TREATMENTS USING THE SAME” (priority 2020, published 2023)
